Assay results: the supplement of paper PMC13380429

Tests used:
Conditions in all cases: 72 h
Caco-2 [1] = assay: cell viability relative to DMSO; higher = less toxic
Calu-3 [2] = assay: as above
HepG2 [3] = assay: as above
U2OS [4] = assay: as above
Vero E6 [5] = assay: as above
Caco-2 [6] = assay: relative viability EC50 (midpoint between 100% and the lowest measured viability); higher = less toxic
Calu-3 [7] = assay: as above
HepG2 [8] = assay: as above
U2OS [9] = assay: as above
Vero E6 [10] = assay: as above
Caco-2 [11] = assay: drug sensitivity score (DSS) for viability; higher = more toxic; extreme values may be limits of the assay
Calu-3 [12] = assay: as above
HepG2 [13] = assay: as above
U2OS [14] = assay: as above
Vero E6 [15] = assay: as above

Structure (SMILES)	cell viability (Caco-2 [1]; 1 nM) [%]	cell viability (Caco-2 [1]; 10 nM) [%]	cell viability (Caco-2 [1]; 100 nM) [%]	cell viability (Caco-2 [1]; 1000 nM) [%]	cell viability (Caco-2 [1]; 10000 nM) [%]	cell viability (Calu-3 [2]; 1 nM) [%]	cell viability (Calu-3 [2]; 10 nM) [%]	cell viability (Calu-3 [2]; 100 nM) [%]	cell viability (Calu-3 [2]; 1000 nM) [%]	cell viability (Calu-3 [2]; 10000 nM) [%]	cell viability (HepG2 [3]; 1 nM) [%]	cell viability (HepG2 [3]; 10 nM) [%]	cell viability (HepG2 [3]; 100 nM) [%]	cell viability (HepG2 [3]; 1000 nM) [%]	cell viability (HepG2 [3]; 10000 nM) [%]	cell viability (U2OS [4]; 1 nM) [%]	cell viability (U2OS [4]; 10 nM) [%]	cell viability (U2OS [4]; 100 nM) [%]	cell viability (U2OS [4]; 1000 nM) [%]	cell viability (U2OS [4]; 10000 nM) [%]	cell viability (Vero E6 [5]; 1 nM) [%]	cell viability (Vero E6 [5]; 10 nM) [%]	cell viability (Vero E6 [5]; 100 nM) [%]	cell viability (Vero E6 [5]; 1000 nM) [%]	cell viability (Vero E6 [5]; 10000 nM) [%]	relative viability EC50 (Caco-2 [6]) [µM]	relative viability EC50 (Calu-3 [7]) [µM]	relative viability EC50 (HepG2 [8]) [µM]	relative viability EC50 (U2OS [9]) [µM]	relative viability EC50 (Vero E6 [10]) [µM]	drug sensitivity score (Caco-2 [11])	drug sensitivity score (Calu-3 [12])	drug sensitivity score (HepG2 [13])	drug sensitivity score (U2OS [14])	drug sensitivity score (Vero E6 [15])
O=C1NC(=O)C(c2ccccc2)(c2ccccc2)N1 [phenytoin]	97.9	95.9	88.6	101	99.3	102	96.1	97.8	93.5	84.9	108	94.8	99.5	95.8	101	97.7	104	96	101	98.9	96	103	100	98.4	100	> 10	> 10	> 10	> 10	> 10	0	0.3	0	0	0
CCCN(CCC)C(=O)C(CCC(=O)OCCCN1CCN(CCOC(=O)Cc2c(C)n(C(=O)c3ccc(Cl)cc3)c3ccc(OC)cc23)CC1)NC(=O)c1ccccc1 (stereo not given) [proglumetacin]	104	96.5	99.1	112	108	95.5	96.2	99	110	96.6	91	114	112	85.3	93.9	95.9	106	101	104	94	115	97.2	98	91.5	102	> 10	> 10	> 10	> 10	> 10	0	0	1.1	0	0
